Tests used:
[1] = test system: reactive oxygen species (ROS); assay: ROS inhibition assay in whole blood (neutrophils, DHR-123 flow cytometry); type: cell-based, human; settings: fMLP or PMA stimulated whole blood, potency relative to compound 401, FIG. 1
Procedure: Whole blood (sodium heparin vacutainer) was obtained from two normal, healthy donors from Research Blood Components, Boston, Mass. For each donor sample, two duplicate assays were performed according to the following procedure. Whole blood (100 μl) was added to wells of a 96 deep-well plate. Compounds were serially diluted in Hanks Balanced Salt Solution (HBSS) to achieve a desired dose-response. The resulting diluted solutions (100 μl) were added to the whole blood samples, mixed gently, and incubated for 30 minutes at 37° C., 5% CO2. The blood was then stimulated by addition of Formyl-Methionyl-Leucyl-Phenylalanine (fMLP) (1 μM final concentration) or phorbol myristate acetate (PMA) (10 ng/ml final concentration) and was further incubated for 20 minutes at 37° C., 5% CO2. Dihydrorhodamine 123 (DHR-123) reagent (Invitrogen), a cell-permeable probe that becomes highly fluorescent when oxidized, was then added to the blood at a final concentration of 0.5 μM and incubated for another 20 minutes at 37° C., 5% CO2. The red blood cells were then lysed in 1 ml ammonium chloride-potassium (ACK) lysis buffer (Invitrogen) for 10 minutes at room temperature. The remaining leukocytes (including the neutrophils) were washed once in HBSS and resuspended in HBSS/0.5% paraformaldehyde. To quantify intracellular ROS production, the fluorescence of the oxidized form of DHR-123, which is a fluorescent compound, was measured. The level of oxidized DHR-123 in neutrophils was assessed for each sample by measuring cell fluorescence on a flow cytometer. The IC50 value was calculated using commercially available statistics software and the average IC50 values from the two donors was calculated. The potency of the compound relative to the potency of compound 401 was obtained by dividing the IC50 value of compound 401 by the IC50 value of the compound.

[2] = test system: TNF-α; assay: TNF-α inhibition assay in LPS-stimulated whole blood; type: cell-based, human; settings: LPS-induced TNF-α in whole blood, potency relative to compound 401, FIG. 1
Procedure: Whole blood (sodium heparin vacutainer) was obtained from two normal, healthy donors from Research Blood Components, Boston, Mass. For each donor sample, two duplicate assays were performed according to the following procedure. Blood was diluted 1:1 with Opti-MEM® Reduced Serum Medium (Invitrogen) and 100 μl of diluted blood was added to wells of a 96-well plate. The test compounds were serially diluted in Opti-MEM® to create a dose-response. The resulting diluted solutions (50 μl) were then added to the wells containing diluted blood and the mixture was incubated for 15 minutes at 37° C., 5% CO2. Lipopolysaccharide (LPS) strain 113:H10 (obtained from Associates of Cape Cod #E0005) was prepared at a 4× concentration and 50 μl of 4 ng/ml solution was added to the blood to achieve a final concentration of 1 ng/ml. Control wells contained diluted blood and 100 μl Opti-MEM® (negative control) or 50 μl Opti-MEM® plus 50 μl LPS (positive control). Plates were then incubated for 24 h at 37° C., 5% CO2. After incubation, diluted plasma was harvested by centrifugation at 3000 RPM for 2 minutes to pellet the blood cells. Supernatant (diluted plasma) was then transferred into a clean 96-well plate. The diluted plasma was further diluted 1:10 with ELISA reagent diluents and the TNF-α level for each compound was measured following manufacturer's instructions for the DuoSet® ELISAs (R & D Systems). The IC50 value for the compound was calculated using commercially available statistics software and the average IC50 values from the two donors was calculated. The potency of the compound relative to the potency of compound 401 was obtained by dividing the IC50 value of compound 401 by the IC50 value of the compound.

[3] = test system: IFN-gamma; assay: IFN-gamma assay (blood donors); type: cell-based, human; settings: for IC50: Homo sapiens
[4] = test system: MCP-1; assay: MCP-1 assay (blood donors); type: cell-based, human; settings: for IC50: Homo sapiens
Text: MCP-1 is a known pro-inflammatory cytokine that plays important roles in various diseases.

[5] = pentoxifylline and its metabolites; cited from earlier work

Compound	activity (relative potency) in the ROS inhibition assay [1]	activity (relative potency) in the ROS inhibition assay ([1]; listed as M-2)	activity (relative potency) in the TNF-α inhibition assay [2]	activity (relative potency) in the TNF-α inhibition assay ([2]; listed as M-2)	IC50 ([3]; Donor I)	IC50 ([3]; Donor II)	IFN-gamma IC50 values compared with Compounds 400 and 401 ([3]; one donor)	IFN-gamma IC50 values compared with Compounds 400 and 401 ([3]; second donor)	IC50 ([4]; Donor 1)	IC50 ([4]; Donor 2)	MCP-1 IC50 values compared with Compounds 400 and 401 ([4]; both donors of Table 2)	time to peak plasma levels [5]
Cn1cnc2c1c(=O)n(CCCCC(O)CO)c(=O)n2C (stereo not drawn) [Compound 308, 1-(5,6-Dihydroxyhexyl)-3,7-dimethyl-1H-purine-2,6(3H,7H)-dione]	comparable activity	active	comparable activity	active	72 µM	119 µM	slightly higher	very similar	194 µM	125 µM	slightly higher	–
CC(=O)CCCCn1c(=O)c2c(ncn2C)n(C)c1=O [Compound 400, 1-(5-oxohexyl)-3,7-dimethylxanthine]	comparable activity	–	comparable activity	–	78 µM	63 µM	–	–	80 µM	80 µM	–	within one hour
CC(O)C(O)CCCn1c(=O)c2c(ncn2C)n(C)c1=O (stereo not drawn) [Compound M-3]	significantly lower activity	–	significantly lower activity	–	–	–	–	–	–	–	–	–
Cn1cnc2c1c(=O)n(CCCCC(=O)O)c(=O)n2C [Compound M-4]	significantly lower activity	–	significantly lower activity	–	–	–	–	–	–	–	–	–
Cn1cnc2c1c(=O)n(CCCC(=O)O)c(=O)n2C [Compound M-5]	significantly lower activity	–	significantly lower activity	–	–	–	–	–	–	–	–	–

Source: patent US20140296263A1, “SUBSTITUTED XANTHINE DERIVATIVES” (CONCERT PHARMACEUTICALS, INC., priority 2011, published 2014)
